According to US8853146B2, “Hapten compounds and compositions and uses thereof” (The Board of Trustees of the University of Arkansas, priority 2007, dated 2014):

Legend:
Set-up in all cases: species or system mouse
Details in all cases: RIA IC50 value for METH/RIA IC50 value for test ligand
mAb6H4 = experiment: RIA cross-reactivity profile, inhibition of [3H]-(+)METH binding to mAb6H4
Description: (§1) KD values for mAb were determined by the method of Akera and Cheng (1977, Biochim Biophys Acta 470:412-423).

mAb4G9 = experiment: RIA cross-reactivity profile, inhibition of [3H]-(+)METH binding to mAb4G9
Description: as §1

mAb6H8 = experiment: RIA cross-reactivity profile, inhibition of [3H]-(+)METH binding to mAb6H8
Description: as §1

Row | Compound | Antibody Specificity (Relative Potency to METH), mAb6H4 (mAb6H4) | Antibody Specificity (Relative Potency to METH), mAb4G9 (mAb4G9) | Antibody Specificity (Relative Potency to METH), mAb6H8 (mAb6H8)
1 | CC(N)Cc1ccccc1 (single isomer, unassigned; (+)) [(+)AMP, (+)-amphetamine] | 0.001 | 0.34 | 0.023
2 | CC(N)Cc1ccc2c(c1)OCO2 (single isomer, unassigned; (+)) [(+)MDA] | 0.001 | 0.090 | 0.024
3 | CNC(C)Cc1ccc2c(c1)OCO2 (single isomer, unassigned; (+)) [(+)MDMA, (+)-3,4-methylenedioxymethamphetamine] | 1.25 | 0.29 | 3.40
4 | CC(N)C(O)c1ccccc1 (single isomer, unassigned; (+)) [(+)phenylpropanolamine] | <0.001 | <0.001 | <0.001
5 | CC(N)Cc1ccccc1 (single isomer, unassigned; (-)) [(−)AMP, (−)amphetamine] | <0.001 | 0.063 | 0.003
6 | CC(N)Cc1ccc2c(c1)OCO2 (single isomer, unassigned; (-)) [(−)MDA] | <0.001 | 0.002 | <0.001
7 | CNC(C)Cc1ccc2c(c1)OCO2 (single isomer, unassigned; (-)) [(−)MDMA] | 0.007 | 0.011 | 0.018
8 | CNC(C)Cc1ccc(O)cc1 (stereo not drawn) [4-OH-METH] | 0.588 | 0.106 | 0.294
9 | CN[C@H](C)[C@@H](O)c1ccccc1 [(+)ephedrine] | <0.001 | <0.001 | <0.001
10 | NCCc1ccc(O)c(O)c1 [dopamine] | <0.001 | <0.001 | <0.001
11 | CNC[C@H](O)c1ccc(O)c(O)c1 [epinephrine] | <0.001 | <0.001 | <0.001
12 | CNC[C@H](O)c1cccc(O)c1 [l-phenylphrine] | 0.001 | <0.001 | <0.001
13 | NC[C@H](O)c1ccc(O)c(O)c1 [norepinepherine] | <0.001 | <0.001 | <0.001
14 | NCCc1c[nH]c2ccc(O)cc12 [serotonin] | <0.001 | <0.001 | <0.001
15 | NCCc1ccc(O)cc1 [tyramine] | <0.001 | <0.001 | <0.001
16 | NCCc1ccccc1 [β-phenylethylamine] | <0.001 | 0.001 | <0.001
17 | (+)norpseudoephedrine | <0.001 | <0.001 | <0.001
18 | (+)pseudoephedrine | <0.001 | 0.004 | 0.018
19 | (−)-methamphetamine [(−)METH] | 0.030 | 0.102 | 0.011
